Target: T1, T1R1 and T1R2 with G protein α-subunits (α15 and α16/Z chimeric protein) (Mus musculus, UniProt Q925I4+Q99PG6, E350G/G527D/P352R/R175Q)
T1 construct: expressed in transfected cells; host or cells: 293 cells, RCB 1637 (human embryonic kidney)
T1 sequence (Q99PG6 20-842 L120P/N244D/D281A/N309Y/P311T/S314P/H418Y): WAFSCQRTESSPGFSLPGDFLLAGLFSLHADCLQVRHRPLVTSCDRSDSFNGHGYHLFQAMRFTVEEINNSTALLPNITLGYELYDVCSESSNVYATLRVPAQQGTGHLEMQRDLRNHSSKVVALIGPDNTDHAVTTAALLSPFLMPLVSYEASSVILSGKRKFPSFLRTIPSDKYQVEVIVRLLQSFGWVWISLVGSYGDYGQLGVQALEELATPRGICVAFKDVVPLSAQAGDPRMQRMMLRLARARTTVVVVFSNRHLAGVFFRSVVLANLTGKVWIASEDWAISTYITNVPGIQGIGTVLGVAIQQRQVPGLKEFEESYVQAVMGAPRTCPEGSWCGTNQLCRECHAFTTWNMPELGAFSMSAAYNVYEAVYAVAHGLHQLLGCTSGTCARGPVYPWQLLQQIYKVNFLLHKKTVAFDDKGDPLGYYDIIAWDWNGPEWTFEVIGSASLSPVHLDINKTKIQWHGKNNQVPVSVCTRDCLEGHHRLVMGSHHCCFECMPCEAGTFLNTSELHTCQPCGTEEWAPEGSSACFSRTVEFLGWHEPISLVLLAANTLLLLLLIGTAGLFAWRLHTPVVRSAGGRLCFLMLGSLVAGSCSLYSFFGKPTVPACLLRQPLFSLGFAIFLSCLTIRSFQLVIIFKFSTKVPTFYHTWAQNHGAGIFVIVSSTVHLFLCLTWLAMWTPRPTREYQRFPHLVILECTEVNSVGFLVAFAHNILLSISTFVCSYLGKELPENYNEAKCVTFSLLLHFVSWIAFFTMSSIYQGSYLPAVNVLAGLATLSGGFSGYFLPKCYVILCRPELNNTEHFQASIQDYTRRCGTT
T1 sequence (Q925I4 20-843 R175Q/E350G/P352R/G527D): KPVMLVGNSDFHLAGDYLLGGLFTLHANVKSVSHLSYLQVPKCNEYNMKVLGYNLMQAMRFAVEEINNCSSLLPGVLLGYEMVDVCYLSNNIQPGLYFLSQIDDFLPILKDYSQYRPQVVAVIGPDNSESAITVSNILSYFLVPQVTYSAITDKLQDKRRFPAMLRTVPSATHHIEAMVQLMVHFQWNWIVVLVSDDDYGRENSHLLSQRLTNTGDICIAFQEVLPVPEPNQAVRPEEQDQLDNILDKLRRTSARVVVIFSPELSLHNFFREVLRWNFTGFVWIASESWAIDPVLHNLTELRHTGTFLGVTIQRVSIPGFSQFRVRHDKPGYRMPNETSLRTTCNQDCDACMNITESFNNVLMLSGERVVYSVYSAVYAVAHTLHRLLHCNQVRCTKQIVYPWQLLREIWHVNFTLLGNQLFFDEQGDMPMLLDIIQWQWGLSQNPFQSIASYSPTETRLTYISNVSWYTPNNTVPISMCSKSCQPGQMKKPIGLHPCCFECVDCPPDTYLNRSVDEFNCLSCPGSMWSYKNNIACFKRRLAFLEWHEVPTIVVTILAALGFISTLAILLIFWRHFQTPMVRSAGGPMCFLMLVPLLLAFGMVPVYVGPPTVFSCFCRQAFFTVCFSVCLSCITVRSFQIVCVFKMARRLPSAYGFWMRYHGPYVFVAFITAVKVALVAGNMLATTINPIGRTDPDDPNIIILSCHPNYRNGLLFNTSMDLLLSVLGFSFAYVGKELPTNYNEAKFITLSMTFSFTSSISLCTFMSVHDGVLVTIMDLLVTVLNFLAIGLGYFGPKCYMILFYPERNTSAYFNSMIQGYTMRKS
Assay: Intracellular calcium ion assay, 293 cells coexpressing G protein α-subunits, T1R1 and T1R2
Assay type: cell-based
Details: 293 cells: T1R1 + T1R2 + G protein α-subunits; 0.67 ml of 1 M saccharide solution added to 2 ml cell suspension; FLUO-4 AM
Procedure: The coexpression vector for the G protein α-subunit α15 and the G protein α16/Z chimeric protein (hereinafter designated as “G protein α-subunits”) obtained in Example 1-3 was gene transferred to 293 cells, RCB 1637, a human embryonic kidney cell line, available from the Riken Bioresource Center, Ibaraki, Japan, by conventional lipofection. The gene transferred cells were suspended in Dulbecco's Modified Eagle's Medium (D-MEM) supplemented with 1 mg/L of “PUROMYCIN”, a trade mane of puromycin commercialized by Edge Biosystems, MD, USA, and 10% (v/v) of fetal calf serum to give a cell density of 2×10^6 cells/ml and cultured in a plastic petri dish for cell culture. […]
The captioned reactivity test was conducted according to a conventional intracellular calcium ion assay: 293 Cells prepared in Example 3, capable of coexpressing the G protein α-subunits and the sweet taste receptor(s), were cultured in a plastic petri dish for cell culture until reaching its confluent phase. […] Two milliliters of the resultant cell suspension was injected into a glass cuvette, commercialized by Hitachi, Ltd., Tokyo, Japan, and analyzed on “HITACHI 650-40”, a fluorescence spectrophotometer commercialized by Hitachi, Ltd., Tokyo, Japan. […]

With `OC[C@H]1O[C@@](CO)(O[C@H]2O[C@H](CO)[C@@H](O)[C@H](O)[C@H]2O)[C@@H](O)[C@@H]1O` [Sucrose, reference compound] the “Influx of calcium ion” value was “Negative”.
`OC[C@H]1O[C@H](O[C@H]2O[C@H](CO)[C@@H](O)[C@H](O)[C@H]2O)[C@H](O)[C@@H](O)[C@@H]1O` [Trehalose] was tested, and the “Influx of calcium ion” value was “Negative”.

Reference: patent US20050048508A1, “Trehalose receptor and method for detecting trehalose with the same” (KABUSHIKI KAISHA HAYASHIBARA SEIBUTSU KAGAKU KENKYUJO, priority 2002, published 2005)
